In patent US20210060138A1 (priority 2019, published 2021):
Converted amounts (≈) assume the structure as drawn.

These compounds were tested on HIV-1NL4-3-GFP-P2A-Nef (assay: ART and LASER ART drug cocktails at 5×EC90 in HIV-1 infected Jurkat T cell line). Conditions: Human immunodeficiency virus 1, Jurkat, read-out: 5×EC90 values.
Format: cell-based
Description: FIGS. 6A-6C show the combined effect of ART and CRISPR/Cas9 on HIV-1 infection of Jurkat T cell line. FIG. 6A: Experimental design and procedure. Jurkat cells were infected with HIV-1NL4-3-GFP-P2A-Nef at multiplicity of infection (MOI) 0.001 and 0.01. […] At day 6 of infection the drugs were removed to allow efficient lentiviral transduction of Cas9 and gRNAs LTR A and LTR B which was conducted at day 7. At day 8 antiretrovirals were added back and continued for another 4 days. Twelve days after HIV-1 infection cells were collected, genomic DNA was extracted and analyzed by PCR for CRISPR-Cas9 mediated cleavage of viral LTR sequences. FIG. 6B: Quantification of the level of infection at day 7. Cells were fixed with 2% PFA and FACS analysis was performed to measure GFP expressing population for HIV infection/replication in vitro. FIG. 6C: Similar to FIG. 6B with exception that cells were treated with modified ART.
In vitro Infection: HEK-293T cells were transfected using CaPO4 precipitation method in the presence of chloroquine (50 μM) with 30 μg of pNL4-3-EGFP-P2A-Nef plasmid (13)/2.5×10^6 cells/100 mm dish. Next day, medium was replaced; and 24 h and 48 h later supernatants were collected, clarified at 3000 RPM for 10 minutes, filtered through 0.45 um filter, and concentrated by ultracentrifugation for 2 h with 20% sucrose cushion (25). Viral pellets were resuspended in HBSS by gentle agitation overnight, aliquoted, and tittered in Jurkat cells by FACS for GFP expression. Jurkat cells were infected by spinoculation for 1.5 h (26), 32° C. in 500 μl inoculum containing 8 μg/ml polybrene then resuspended and left for 4 h then 500 μl of growth medium was added. Next day, cells were washed 3 times with PBS and re-suspended in growth medium.
With `Cc1cc(/C=C/C#N)cc(C)c1Nc1ccnc(Nc2ccc(C#N)cc2)n1` [RPV, rilpivirine] the EC90 was 0.0033 µg/mL (≈ 0.00901 µM).
`Nc1nc(NC2CC2)c2ncn([C@H]3C=C[C@@H](CO)C3)c2n1` [ABC, abacavir] was tested, and the EC90 was 8.3 µg/mL (≈ 29 µM).
`Nc1ccn([C@@H]2CS[C@H](CO)O2)c(=O)n1` [3TC, lamivudine] showed an EC90 of 17.2 µg/mL (≈ 75 µM).
Work on `C[C@@H]1CCO[C@H]2Cn3cc(C(=O)NCc4ccc(F)cc4F)c(=O)c(O)c3C(=O)N12` [DTG, dolutegravir] yielded an EC90 of 0.0111 µg/mL (≈ 0.0265 µM).

Same assay, conditions: concentration used in the cocktail, equal to 5×EC90
For `CCCCCCCCCCCCCC(=O)OCC1OC(n2ccc(N)nc2=O)CS1` (stereo not shown) [M3TC, myristoylated lamivudine], the “5×EC90 values” was 32.9 µg/mL.
With `CCCCCCCCCCCCCC(=O)OCC1C=CC(n2cnc3c(NC4CC4)nc(N)nc32)C1` (stereo not shown) [MABC, myristoylated abacavir] the “5×EC90 values” was 14.4 µg/mL.
With `CCCCCCCCCCCCCC(=O)Oc1c2n(cc(C(=O)NCc3ccc(F)cc3F)c1=O)C[C@@H]1OCC[C@@H](C)N1C2=O` [MDTG, myristoylated dolutegravir] the “5×EC90 values” was 0.0167 µg/mL.
